Assay [1] addresses T1, human CB1 receptor (Homo sapiens, UniProt P21554).
T1 construct: expressed in transfected cells; host or cells: HEK293
Description: bioSensAll β-arrestin plasma membrane (PM) translocation BRET biosensor (+GRK2) assay in transfected HEK293 cells, inhibition of CP-55,940 response. The class given is cell-based. The conditions noted are these: HEK293 cells transfected with hCB1 and β-arrestin PM translocation biosensor (+GRK2), test compound then EC75 of CP-55,940 (100 nM), overnight incubation, read-out: CB1 wt βarr2 EC50. As for the experimental part: (§1) Using polyethylenimine (PEI) transfection agent, HEK293 cells were transfected in suspension with the human CB1 or CB1 b receptor and one of the following bioSensAll® assays: GAPL-Gi2, or β-arrestin plasma membrane (PM) translocation biosensor (+GRK2). Cells were directly seeded in 96-well plates immediately following transfection.
(§2) Cells were incubated with coelenterazine (luciferase substrate) and different test compounds prior to the measurement of BRET signals.
(§3) Used in this project are i) Ga plasma membrane (GAPL) biosensors and the ii) β-arrestin plasma membrane translocation biosensor. • i) GAPL sensors are used to monitor the activation of heterotrimeric G proteins at the plasma membrane upon receptor stimulation. Specifically, these multimolecular BRET sensors detect the plasma membrane recruitment of proteins that interact with active Ga subunits in a G protein family-selective manner. G protein activation following receptor stimulation generally leads to an increase in the BRET signal. • ii) The multimolecular β-arrestin membrane recruitment biosensors allow for real-time spatio-temporal monitoring of β-arrestin 1 and β-arrestin 2 following GPCR activation. Specifically, these β-arrestin sensors were designed to detect the recruitment of proteins to the plasma membrane β-arrestin PM) with localization to compartment resulting in an increased BRET signal. c) Cell Culture Conditions HEK293 cells were maintained in Dulbecco's Modified Eagle Medium (DMEM) (Wisent; cat #319-030-CL: without sodium pyruvate, with 4.5 g/L glucose, without L-glutamine) supplemented with 1% penicillin-streptomycin (Wisent; cat #450-201-EL) and 2 or 10% fetal bovine serum (Wisent cat #090150).
(§4) HEK293 cells were co-transfected with hCB1 or hCB1b and one of the above-listed bioSensAll® assays. For each transfection condition: • the total amount of transfected DNA was kept constant at 1 μg per mL of cell culture to be transfected; whenever necessary, salmon sperm DNA (Invitrogen, cat #15632011) was used as ‘carrier’ DNA to supplement plasmid DNA (i.e., biosensor and receptor); • the PEI (polyethylenimine 25 kDa linear, PolyScience, cat #23966) to DNA ratio (ug:ug) was fixed at 3:1. Transfections were Carried Out as Follows: • DNA and PEI were first diluted separately in 150 mM NaCl. The volume of the diluent in each tube corresponds to 5% of the cell culture volume to be transfected. • Once DNA and PEI were diluted, the PEI-containing solution was added to the DNA solution and the DNA/PEI mixture immediately vortexed for 5 seconds. • The DNA/PEI mixture was incubated for at least 20 minutes at room temperature to allow for the formation of DNA/PEI complexes. • During the incubation, HEK293 cells were detached, counted and re-suspended in culture medium (composition specified above). • At the end of the incubation period, the DNA/PEI mixture was added to the cells. • Cells were finally distributed in 96-well plates (White Opaque 96-well/Microplates, Greiner, cat #655083 or CulturPlate-96, White Opaque 96-well Microplate, PerkinElmer, cat #6005688) at a density of 30 000 cells per well.
(§5) • Using 450-Select TS Biotek plate washer, culture medium was aspirated and replaced with 100 μl of Hank's Balanced Salt Solution buffer (HBSS) (Wisent, cat #319-067CL: without red phenol; with sodium bicarbonate, with calcium and magnesium, with HEPES) per well. This process was performed a total of two times (i.e., 2 washes). • After the washing step, the HP D300 digital dispenser (Tecan) was used to inject increasing doses (12) of test compounds (ranging from 0-600 nM) to wells. […]

In assay [2] the target is T1, human CB1 receptor. Description: bioSensAll GAPL-Gi2 BRET biosensor assay in transfected HEK293 cells, inhibition of CP-55,940 response. The format is cell-based. Particulars: HEK293 cells transfected with hCB1 and GAPL-Gi2 biosensor, test compound then EC75 of CP-55,940 (0.1 nM), overnight incubation, read-out: CB1 wt Gi2 EC50. As to the method: as §1, §2, §3, §4, §5

Structures are written as SMILES.

Drawing on patent publication US20250042861A1, “TETRAHYDROPYRIDAZINES, COMPOSITIONS COMPRISING THEM AND USES THEREOF” (Novo Nordisk A/S, priority 2021, published 2025), this text covers EC50 for 15 molecules.

T1 sequence (P21554 whole entry): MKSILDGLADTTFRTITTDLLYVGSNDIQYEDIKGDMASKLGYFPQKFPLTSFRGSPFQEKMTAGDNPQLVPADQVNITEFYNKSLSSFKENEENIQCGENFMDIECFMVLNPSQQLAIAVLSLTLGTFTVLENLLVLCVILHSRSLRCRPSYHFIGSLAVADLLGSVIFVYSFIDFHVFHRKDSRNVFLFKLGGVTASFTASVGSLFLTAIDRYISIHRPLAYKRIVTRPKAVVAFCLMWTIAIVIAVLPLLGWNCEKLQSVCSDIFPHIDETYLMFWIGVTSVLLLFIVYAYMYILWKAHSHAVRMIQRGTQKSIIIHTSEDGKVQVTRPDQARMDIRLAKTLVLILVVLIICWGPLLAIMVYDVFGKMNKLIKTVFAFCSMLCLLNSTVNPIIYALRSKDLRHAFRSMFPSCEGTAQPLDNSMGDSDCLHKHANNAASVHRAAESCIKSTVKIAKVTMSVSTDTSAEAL

Turning to `CC(=O)NC(=N)/N=C(/NS(=O)(=O)c1ccc(C(F)(F)F)cn1)N1CCC(c2ccccc2)C(c2ccc(Cl)cc2)=N1` (single isomer, unassigned) [Compound 8 Isomer 1, N-[(NE)-N-[[6-(4-chlorophenyl)-5-phenyl-4,5-dihydro-3H-pyridazin-2-yl]-[[5-(trifluoromethyl)-2-pyridyl]sulfonylamino]methylene]carbamimidoyl]acetamide], the EC50 in assay [1] and in assay [2] was over 30000 nM in each case.
With `CC(=O)N/C(N)=N\C(=N\S(=O)(=O)c1ccc(C(F)(F)F)cc1)N1CCC(c2ccccc2)C(c2ccc(Cl)cc2)=N1` (single isomer, unassigned) [Compound 7 Isomer 2, N-[(E)-N′-[(Z)-C-[6-(4-chlorophenyl)-5-phenyl-4,5-dihydro-3H-pyridazin-2-yl]-N-[4-(trifluoromethyl)phenyl]sulfonyl-carbonimidoyl]carbamimidoyl]acetamide], the EC50 in assay [1] came out at 2.1 nM; in assay [2], 0.42 nM.
The like results for `CC(=O)N/C(N)=N/C(=N/S(=O)(=O)N1CCC(C(F)(F)F)CC1)N1CCC(c2ccccc2)C(c2ccc(Cl)cc2)=N1` (single isomer, unassigned) [Compound 3 Isomer 2, N-[(E)-N′-[(Z)-C-[6-(4-chlorophenyl)-5-phenyl-4,5-dihydro-3H-pyridazin-2-yl]-N-[[4-(trifluoromethyl)-1-piperidyl]sulfonyl]carbonimidoyl]carbamimidoyl]acetamide] were, in that order, 1.3 nM and 0.64 nM.
For the molecule `CC(=O)N/C(N)=N/C(=N/S(=O)(=O)N1CCC(F)(F)CC1)N1CCC(c2ccccc2)C(c2ccc(Cl)cc2)=N1` (single isomer, unassigned) [Compound 4 Isomer 2, N-[(E)-N′-[(Z)-C-[6-(4-chlorophenyl)-5-phenyl-4,5-dihydro-3H-pyridazin-2-yl]-N-[(4,4-difluoro-1-piperidyl)sulfonyl]carbonimidoyl]carbamimidoyl]acetamide], the figures for the EC50 in assay [1] and in assay [2] were 1.4 nM and 0.67 nM, respectively.
With `CC(=O)NC(N)=NC(=NS(=O)(=O)c1cc(F)cc(F)c1)N1CCC(c2ccccc2)C(c2ccc(Cl)cc2)=N1` (single isomer, unassigned) [Compound 6 Isomer 1, N-[(E)-N′-[(Z)-C-[6-(4-chlorophenyl)-5-phenyl-4,5-dihydro-3H-pyridazin-2-yl]-N-(3,5-difluorophenyl)sulfonylcarbonimidoyl]carbamimidoyl]acetamide], the EC50 in assay [1] was 380 nM; in assay [2], 39 nM.
The like results for `CC(=O)NC(=N)/N=C(/NS(=O)(=O)c1ccc(C(F)(F)F)cn1)N1CCC(c2ccccc2)C(c2ccc(Cl)cc2)=N1` (single isomer, unassigned) [Compound 8 Isomer 2, N-[(NE)-N-[[6-(4-chlorophenyl)-5-phenyl-4,5-dihydro-3H-pyridazin-2-yl]-[[5-(trifluoromethyl)-2-pyridyl]sulfonylamino]methylene]carbamimidoyl]acetamide] were, in that order, 8.5 nM and 1.9 nM.
The like results for `CC(=O)NC(N)=NC(=NS(=O)(=O)c1ccc(Cl)cc1)N1CCC(c2ccccc2)C(c2ccc(Cl)cc2)=N1` (single isomer, unassigned) [Compound 1 Isomer 2, N-[(E)-N′-[(Z)-C-[6-(4-chlorophenyl)-5-phenyl-4,5-dihydro-3H-pyridazin-2-yl]-N-(4-chlorophenyl)sulfonylcarbonimidoyl]carbamimidoyl]acetamide] were, in that order, 3.3 nM and 1.2 nM.
The like results for `CC(=O)N/C(N)=N\C(=N\S(=O)(=O)c1ccc(C(F)(F)F)cc1)N1CCC(c2ccccc2)C(c2ccc(Cl)cc2)=N1` (single isomer, unassigned) [Compound 7 Isomer 1, N-[(E)-N′-[(Z)-C-[6-(4-chlorophenyl)-5-phenyl-4,5-dihydro-3H-pyridazin-2-yl]-N-[4-(trifluoromethyl)phenyl]sulfonyl-carbonimidoyl]carbamimidoyl]acetamide] were, in that order, 580 nM and 200 nM.
For the molecule `CC(=O)N/C(N)=N/C(=N/S(=O)(=O)N1CCCC(F)(F)C1)N1CCC(c2ccccc2)C(c2ccc(Cl)cc2)=N1` (single isomer, unassigned) [Compound 5 Isomer 2, N-[(E)-N′-[(Z)-C-[6-(4-chlorophenyl)-5-phenyl-4,5-dihydro-3H-pyridazin-2-yl]-N-[(3,3-difluoro-1-piperidyl)sulfonyl]carbonimidoyl]carbamimidoyl]acetamide], the EC50 in assay [1] was found to be 0.72 nM; in assay [2], 0.43 nM.
The like results for `CC(=O)N/C(N)=N/C(=N/S(=O)(=O)N1CCC(C(F)(F)F)CC1)N1CCC(c2ccccc2)C(c2ccc(Cl)cc2)=N1` (single isomer, unassigned) [Compound 3 Isomer 1, N-[(E)-N′-[(Z)-C-[6-(4-chlorophenyl)-5-phenyl-4,5-dihydro-3H-pyridazin-2-yl]-N-[[4-(trifluoromethyl)-1-piperidyl]sulfonyl]carbonimidoyl]carbamimidoyl]acetamide] were, in that order, 14100 nM and 190 nM.
For `CC(=O)N/C(N)=N/C(=N/S(=O)(=O)N1CCCC(F)(F)C1)N1CCC(c2ccccc2)C(c2ccc(Cl)cc2)=N1` (single isomer, unassigned) [Compound 5 Isomer 1, N-[(E)-N′-[(Z)-C-[6-(4-chlorophenyl)-5-phenyl-4,5-dihydro-3H-pyridazin-2-yl]-N-[(3,3-difluoro-1-piperidyl)sulfonyl]carbonimidoyl]carbamimidoyl]acetamide], the EC50 in assay [1] was 400 nM; in assay [2], 150 nM.
The like results for `CC(=O)N/C(N)=N/C(=N/S(=O)(=O)N1CCCCC1)N1CCC(c2ccccc2)C(c2ccc(Cl)cc2)=N1` (single isomer, unassigned) [Compound 2 Isomer 1, N-[(E)-N′-[(Z)-C-[6-(4-chlorophenyl)-5-phenyl-4,5-dihydro-3H-pyridazin-2-yl]-N-(1-piperidylsulfonyl)carbonimidoyl]carbamimidoyl]acetamide] were, in that order, 23600 nM and 300 nM.
The like results for `CC(=O)NC(N)=NC(=NS(=O)(=O)c1ccc(Cl)cc1)N1CCC(c2ccccc2)C(c2ccc(Cl)cc2)=N1` (single isomer, unassigned) [Compound 1 Isomer 1, N-[(E)-N′-[(Z)-C-[6-(4-chlorophenyl)-5-phenyl-4,5-dihydro-3H-pyridazin-2-yl]-N-(4-chlorophenyl)sulfonylcarbonimidoyl]carbamimidoyl]acetamide] were, in that order, over 30000 nM and 430 nM.
In the case of `CC(=O)NC(N)=NC(=NS(=O)(=O)c1cc(F)cc(F)c1)N1CCC(c2ccccc2)C(c2ccc(Cl)cc2)=N1` (single isomer, unassigned) [Compound 6 Isomer 2, N-[(E)-N′-[(Z)-C-[6-(4-chlorophenyl)-5-phenyl-4,5-dihydro-3H-pyridazin-2-yl]-N-(3,5-difluorophenyl)sulfonylcarbonimidoyl]carbamimidoyl]acetamide], the EC50 in assay [1] is 2.6 nM; in assay [2] it was 0.68 nM.
Consider `CC(=O)N/C(N)=N/C(=N/S(=O)(=O)N1CCCCC1)N1CCC(c2ccccc2)C(c2ccc(Cl)cc2)=N1` (single isomer, unassigned) [Compound 2 Isomer 2, N-[(E)-N′-[(Z)-C-[6-(4-chlorophenyl)-5-phenyl-4,5-dihydro-3H-pyridazin-2-yl]-N-(1-piperidylsulfonyl)carbonimidoyl]carbamimidoyl]acetamide], for which the figures for the EC50 in assay [1] and in assay [2] were 1.5 nM and 0.65 nM, respectively.
